Results from US20210278408A1, “METHODS OF TREATMENT OF CANCER WITH SUBSTITUTED PYRROLE AND PYRAZOLE COMPOUNDS AND DIAGNOSIS OF CANCERS SUSCEPTIBLE TO TREATMENT WITH SUBSTITUTED PYRROLE AND PYRAZOLE COMPOUNDS” (Bantam Pharmaceutical, LLC, priority 2018, published 2021).
Like-named read-outs stand apart in the source and are kept apart here.

System: 407 cancer cell lines
Assay: Cell viability of cancer cell lines (IC50), CellTiter-Glo Viability Assay, 96 h
Format: cell-based
Details: for IC50: read-out: Absolute IC50
Experimental: Viability was determined by using the 50% inhibitory concentration (IC50) as determined with the CellTiter-Glo® Viability Assay (Promega).
Experiments were initiated by first thawing and equilibrating the CellTiter-Glo® Buffer to room temperature. The lyophilized CellTiter-Glo® Substrate was also equilibrated to room temperature. The lyophilized substrate was reconstituted with the CellTiter-Glo® buffer to form the CellTiter-Glo® Reagent.
Cells were harvested during the logarithmic growth period, counted, and the cell concentration adjusted to 4.44×10^4 cells/mL using culture medium.
Cells were allowed to grow overnight and the following day, the TO reading was obtained by adding 10 μL culture medium to each well of Plate A. The plate was allowed to equilibrate at room temperature for thirty minutes, after which 50 μL CellTiter-Glo® reagent was added to each well. The contents were mixed for 5 min on an orbital shaker to induce cell lysis. Plates were incubated for 20 minutes to stabilize the luminescent signal and the TO luminescence recorded.
Test plate B was incubated for 96 h in the humidified incubator at 37° C. with 5% CO2.
Following the incubation, the plate was equilibrated at room temperature for thirty minutes. CellTiter-Glo® (50 μL) was added to each well of the plate and contents mixed for five minutes on an orbital shaker to induce cell lysis. The luminescent signal was allowed to stabilize at room temperature for 20 minutes and the luminescence recorded.
IC50 (EC50) was calculated using a dose-response curve, fitted using a nonlinear regression model with a sigmoidal dose response. Survival rate was calculated using the formula:
The Surviving rate (%)=(LumTest article−LumMedium control)/(LumNon-treated−LumMedium control)×100%.
Absolute IC50 (EC50) was calculated according to the dose-response curve generated by the statistical software (GraphPad Prism 5.0).

Cc1nn(-c2nc(-c3ccc(C(F)(F)F)cc3)c(SC(C)C)s2)c(C(=O)O)c1-c1cccc(F)c1 [Compound A197, 4-(3-fluorophenyl)-1-(5-(isopropylthio)-4-(4-(trifluoromethyl)phenyl)thiazol-2-yl)-3-methyl-1H-pyrazole-5-carboxylic acid]
% inhibition at top conc. (22Rv1 cells, 96 h): 68.15% | % inhibition at top conc. (5637 cells, 96 h): 68.06% | IC50 (96 h, 5637 cells, 96 h): 0.49 µM | IC50 (96 h, A3/KAW cells, 96 h): 0.29 µM | IC50 (96 h, ASH-3 cells, 96 h): > 30 µM | IC50 (96 h, C4-2, 96 h): > 30 µM | IC50 (96 h, CCK-81 cells, 96 h): 0.32 µM | IC50 (96 h, COV644 cells, 96 h): > 30 µM | IC50 (96 h, H4 cells, 96 h): 0.73 µM | IC50 (96 h, HCC 94 cells, 96 h): 0.82 µM | IC50 (96 h, HM-7, 96 h): > 30 µM | IC50 (96 h, IHH-4 cells, 96 h): 0.9 µM | IC50 (96 h, IM95m cells, 96 h): 0.78 µM | IC50 (96 h, JHH-5 cells, 96 h): > 30 µM | IC50 (96 h, M059K cells, 96 h): 1.66 µM | IC50 (96 h, MC/CAR cells, 96 h): 3.28 µM | IC50 (96 h, NAMALWA cells, 96 h): 0.51 µM | IC50 (96 h, OCUM-2D cells, 96 h): 1.15 µM | IC50 (96 h, OCUM-2M cells, 96 h): 0.83 µM | IC50 (96 h, RBE cells, 96 h): 0.84 µM | IC50 (96 h, SCH cells, 96 h): > 30 µM | IC50 (96 h, SNU-719 cells, 96 h): > 30 µM | IC50 (96 h, SNU-761 cells, 96 h): 1.11 µM | IC50 (96 h, SNU-2535 cells, 96 h): 0.75 µM | IC50 (96 h, SNU-C5 cells, 96 h): > 30 µM | IC50 (96 h, SW 156 cells, 96 h): 2.39 µM | IC50 (96 h, T.Tn cells, 96 h): 0.84 µM | IC50 (96 h, TJ905 cells, 96 h): > 30 µM | IC50 (96 h, YCC-1 cells, 96 h): > 30 µM | IC50 (96 h, YCC-2 cells, 96 h): > 30 µM | IC50 (96 h, YCC-6 cells, 96 h): 0.54 µM | IC50 (96 h, YCC-10, 96 h): > 30 µM | IC50 (A875, 96 h, A875 cells, 96 h): > 30 µM | % inhibition at top conc. (A875 cells, 96 h): 10.68% | % inhibition at top conc. (A2058, 96 h): 29.09% | % inhibition at top conc. (A2780 cells, 96 h): 69.48% | IC50 (A2780cis, 96 h, A2780cis cells, 96 h): 0.54 µM | % inhibition at top conc. (A-204 cells, 96 h): 37.77% | % inhibition at top conc. (A-375, 96 h): 52.11% | % inhibition at top conc. (A-431, 96 h): 66.83% | % inhibition at top conc. (AGS cells, 96 h): 28.18% | % inhibition at top conc. (AN3 CA, 96 h): 35.67% | % inhibition at top conc. (AsPC-1 cells, 96 h): 34.71% | % inhibition at top conc. (C4-2, 96 h): 45.07% | % inhibition at top conc. (C666-1 cells, 96 h): 36.20% | IC50 (CADO-ES1, CADO-ES1): 0.21 µM | % inhibition at top conc. (CAMA-1, 96 h): 54.72% | % inhibition at top conc. (COLO 205, 96 h): 60.57% | % inhibition at top conc. (COLO 320DM, 96 h): 72.92% | % inhibition at top conc. (COV644 cells, 96 h): 31.57% | % inhibition at top conc. (Calu-3, 96 h): 65.15% | IC50 (CoC1, 96 h, CoC1/DDP cells, 96 h): > 30 µM | IC50 (CoC1, 96 h, CoC1 cells, 96 h): 1.32 µM | % inhibition at top conc. (DMS 53 cells, 96 h): 85.18% | % inhibition at top conc. (DOHH-2 cells, 96 h): 99.99% | % inhibition at top conc. (DU 145, 96 h): 66.37% | % inhibition at top conc. (EBC-1, 96 h): 42.21% | % inhibition at top conc. (EFM-192A, 96 h): 49.39% | IC50 (EFM-192A, 96 h, EFM-192A, 96 h): 0.52 µM | % inhibition at top conc. (ES-2 cells, 96 h): 44.22% | % inhibition at top conc. (FaDu, 96 h): 62.82% | % inhibition at top conc. (GTL-16 cells, 96 h): 54.64% | IC50 (HBL1, HBL-1): 0.71 µM | % inhibition at top conc. (HCC827 cells, 96 h): 63.74% | IC50 (HCC1500, HCC1500): > 30 µM | % inhibition at top conc. (HCC2218, 96 h): 33.43% | % inhibition at top conc. (HCC4006, 96 h): 60.70% | IC50 (HCCC9810, HCCC-9810): > 30 µM | % inhibition at top conc. (HCCLM3 cells, 96 h): 29.79% | % inhibition at top conc. (HGC-27 cells, 96 h): 90.57% | IC50 (HLF, 96 h, HLF cells, 96 h): > 30 µM | % inhibition at top conc. (HM-7, 96 h): 43.55% | % inhibition at top conc. (HT-1080, 96 h): 68.42% | % inhibition at top conc. (Hep G2/C3A, 96 h): 23.83% | IC50 (HepG2/C3A, 96 h, Hep G2/C3A, 96 h): > 30 µM | IC50 (Homo sapiens, 22Rv1, 96 h, 22Rv1 cells, 96 h): 0.43 µM | IC50 (Homo sapiens, 769-P, 96 h, 769-P cells, 96 h): 1.04 µM | IC50 (Homo sapiens, 786-0, 96 h, 786-O cells, 96 h): 1.15 µM | IC50 (Homo sapiens, 8505C): > 30 µM | IC50 (Homo sapiens, A 172, 96 h, A-172 cells, 96 h): > 30 µM | IC50 (Homo sapiens, A204, 96 h, A-204 cells, 96 h): > 30 µM | IC50 (Homo sapiens, A253, 96 h, A253 cells, 96 h): > 30 µM | IC50 (Homo sapiens, A498, 96 h, A498 cells, 96 h): 0.86 µM | IC50 (Homo sapiens, A549, 96 h, A549 cells, 96 h): 1.04 µM | IC50 (Homo sapiens, A673, 96 h, A-673 cells, 96 h): 0.68 µM | IC50 (Homo sapiens, A2058, 96 h): > 30 µM | IC50 (Homo sapiens, A2780, 96 h, A2780 cells, 96 h): 0.4 µM | IC50 (Homo sapiens, A-375, 96 h): > 30 µM | IC50 (Homo sapiens, A-427, 96 h, A-427 cells, 96 h): > 30 µM | IC50 (Homo sapiens, A-431, 96 h): 1.15 µM | IC50 (Homo sapiens, ACHN, 96 h, ACHN cells, 96 h): 0.79 µM | IC50 (Homo sapiens, AGS, 96 h, AGS cells, 96 h): > 30 µM | IC50 (Homo sapiens, AMO1, 96 h, AMO-1 cells, 96 h): 1.48 µM | IC50 (Homo sapiens, AN3-CA, 96 h, AN3 CA, 96 h): > 30 µM | IC50 (Homo sapiens, ARH-77, ARH-77): > 30 µM | IC50 (Homo sapiens, ASPC1, 96 h, AsPC-1 cells, 96 h): > 30 µM | IC50 (Homo sapiens, AU565, AU565): 10.1 µM | IC50 (Homo sapiens, BT-20, 96 h, BT-20 cells, 96 h): > 30 µM | IC50 (Homo sapiens, BT-474, 96 h, BT474 cells, 96 h): > 30 µM | IC50 (Homo sapiens, BT-483, BT-483): > 30 µM | IC50 (Homo sapiens, BT-549, 96 h, BT-549 cells, 96 h): 0.45 µM | IC50 (Homo sapiens, BXPC-3, BxPC-3): 0.54 µM | IC50 (Homo sapiens, C6661, 96 h, C666-1 cells, 96 h): > 30 µM | IC50 (Homo sapiens, C-33-A, 96 h, C-33 A cells, 96 h): > 30 µM | IC50 (Homo sapiens, CA46, 96 h, CA46 cells, 96 h): 0.6 µM | IC50 (Homo sapiens, CAKI-2, Caki-2): > 30 µM | IC50 (Homo sapiens, CAL-27, 96 h, CAL-27 cells, 96 h): 3.95 µM | IC50 (Homo sapiens, CAL-51, CAL-51): 1.68 µM | IC50 (Homo sapiens, CAL-120, CAL-120): > 30 µM | IC50 (Homo sapiens, CAMA-1, 96 h): 0.69 µM | IC50 (Homo sapiens, CAPAN-1, Capan-1): > 30 µM | IC50 (Homo sapiens, CCRF-CEM): 0.58 µM | IC50 (Homo sapiens, CFPAC-1, CFPAC-1): > 30 µM | IC50 (Homo sapiens, COLO 205, 96 h): 1.14 µM | IC50 (Homo sapiens, COLO 320DM, 96 h, COLO 320DM, 96 h): 0.49 µM | IC50 (Homo sapiens, Ca-Ski, 96 h, Ca Ski cells, 96 h): > 30 µM | IC50 (Homo sapiens, Caco-2, 96 h, Caco-2 cells, 96 h): > 30 µM | IC50 (Homo sapiens, Calu-1, Calu-1): 1.04 µM | IC50 (Homo sapiens, Calu-3, 96 h): 1.75 µM | IC50 (Homo sapiens, Calu-6, Calu-6): > 30 µM | IC50 (Homo sapiens, Caov-3, 96 h, Caov-3 cells, 96 h): > 30 µM | IC50 (Homo sapiens, Capan-2, Capan-2): > 30 µM | IC50 (Homo sapiens, DLD-1, DLD-1): 0.42 µM | IC50 (Homo sapiens, DMS-53, 96 h, DMS 53 cells, 96 h): 1.07 µM
